Laboratory results as given in ChEMBL document CHEMBL1155647, “New eudesmane sesquiterpenes from Plectranthus cylindraceus” (J Nat Prod, 2000).
Activity calls are given as the source filed them. The rule behind the calls is not given here.

These molecules were tested on Candida albicans (assay: Antimicrobial activity against Candida albicans ATCC 10231 at 100 ug/mL by agar dilution assay).
Assay type: functional, organism-based

SMILES | Activity
CC(=O)OC[C@@]12CC[C@@H](C(C)C)[C@@H](O)[C@@H]1C(C)=CC(=O)C2 | inactive
COc1cc2oc(-c3ccc(O)c(O)c3)c(OC)c(=O)c2c(O)c1OC | inactive
CC(=O)O[C@@H]1[C@H](C(C)C)CC[C@@]2(CO)CC(=O)C=C(C)[C@@H]12 | inactive
COc1ccc(-c2oc3cc(OC)c(OC)c(O)c3c(=O)c2OC)cc1O | inactive
COc1cc(O)c2c(=O)c(OC)c(-c3ccc(O)c(OC)c3)oc2c1 | inactive
CC(=O)OC[C@@]12CC[C@@H](C(C)C)[C@@H](OC(C)=O)[C@@H]1C(C)=CC(=O)C2 | inactive

Each molecule was assayed on MCF7 (assay: Anticancer activity against human MCF7 cells).
Assay type: functional, cell-based

SMILES | Activity
CC(=O)O[C@@H]1[C@H](C(C)C)CC[C@@]2(CO)CC(=O)C=C(C)[C@@H]12 | inactive
CC(=O)OC[C@@]12CC[C@@H](C(C)C)[C@@H](OC(C)=O)[C@@H]1C(C)=CC(=O)C2 | inactive

The molecules below were run on Bacillus subtilis (assay: Antimicrobial activity against Bacillus subtilis ATCC 6633 at 100 ug/mL by agar dilution assay).
Assay type: functional, organism-based

SMILES | Activity
CC(=O)OC[C@@]12CC[C@@H](C(C)C)[C@@H](O)[C@@H]1C(C)=CC(=O)C2 | inactive
COc1cc2oc(-c3ccc(O)c(O)c3)c(OC)c(=O)c2c(O)c1OC | inactive
CC(=O)O[C@@H]1[C@H](C(C)C)CC[C@@]2(CO)CC(=O)C=C(C)[C@@H]12 | inactive
COc1ccc(-c2oc3cc(OC)c(OC)c(O)c3c(=O)c2OC)cc1O | inactive
COc1cc(O)c2c(=O)c(OC)c(-c3ccc(O)c(OC)c3)oc2c1 | inactive
CC(=O)OC[C@@]12CC[C@@H](C(C)C)[C@@H](OC(C)=O)[C@@H]1C(C)=CC(=O)C2 | inactive

The molecules below were run on Staphylococcus aureus (assay: Antimicrobial activity against Staphylococcus aureus ATCC 29213 at 100 ug/mL by agar dilution assay).
Assay type: functional, organism-based

SMILES | Activity
CC(=O)OC[C@@]12CC[C@@H](C(C)C)[C@@H](O)[C@@H]1C(C)=CC(=O)C2 | inactive
COc1cc2oc(-c3ccc(O)c(O)c3)c(OC)c(=O)c2c(O)c1OC | inactive
CC(=O)O[C@@H]1[C@H](C(C)C)CC[C@@]2(CO)CC(=O)C=C(C)[C@@H]12 | inactive
COc1ccc(-c2oc3cc(OC)c(OC)c(O)c3c(=O)c2OC)cc1O | inactive
COc1cc(O)c2c(=O)c(OC)c(-c3ccc(O)c(OC)c3)oc2c1 | inactive
CC(=O)OC[C@@]12CC[C@@H](C(C)C)[C@@H](OC(C)=O)[C@@H]1C(C)=CC(=O)C2 | inactive

What follows are molecules tested on Pseudomonas aeruginosa (assay: Antimicrobial activity against Pseudomonas aeruginosa ATCC 15442 at 100 ug/mL by agar dilution assay).
Assay type: functional, organism-based

SMILES | Activity
CC(=O)OC[C@@]12CC[C@@H](C(C)C)[C@@H](O)[C@@H]1C(C)=CC(=O)C2 | inactive
COc1cc2oc(-c3ccc(O)c(O)c3)c(OC)c(=O)c2c(O)c1OC | inactive
CC(=O)O[C@@H]1[C@H](C(C)C)CC[C@@]2(CO)CC(=O)C=C(C)[C@@H]12 | inactive
COc1ccc(-c2oc3cc(OC)c(OC)c(O)c3c(=O)c2OC)cc1O | inactive
COc1cc(O)c2c(=O)c(OC)c(-c3ccc(O)c(OC)c3)oc2c1 | inactive
CC(=O)OC[C@@]12CC[C@@H](C(C)C)[C@@H](OC(C)=O)[C@@H]1C(C)=CC(=O)C2 | inactive

What follows are molecules tested on NCI-H460 (assay: Anticancer activity against human NCI-H460 cells).
Assay type: functional, cell-based

SMILES | Activity
CC(=O)O[C@@H]1[C@H](C(C)C)CC[C@@]2(CO)CC(=O)C=C(C)[C@@H]12 | inactive
CC(=O)OC[C@@]12CC[C@@H](C(C)C)[C@@H](OC(C)=O)[C@@H]1C(C)=CC(=O)C2 | inactive

The molecules below were run on Mycolicibacterium smegmatis (assay: Antimicrobial activity against Mycobacterium smegmatis ATCC 35797 at 100 ug/mL by agar dilution assay).
Assay type: functional, organism-based

SMILES | Activity
CC(=O)OC[C@@]12CC[C@@H](C(C)C)[C@@H](O)[C@@H]1C(C)=CC(=O)C2 | inactive
COc1cc2oc(-c3ccc(O)c(O)c3)c(OC)c(=O)c2c(O)c1OC | inactive
CC(=O)O[C@@H]1[C@H](C(C)C)CC[C@@]2(CO)CC(=O)C=C(C)[C@@H]12 | inactive
COc1ccc(-c2oc3cc(OC)c(OC)c(O)c3c(=O)c2OC)cc1O | inactive
COc1cc(O)c2c(=O)c(OC)c(-c3ccc(O)c(OC)c3)oc2c1 | inactive
CC(=O)OC[C@@]12CC[C@@H](C(C)C)[C@@H](OC(C)=O)[C@@H]1C(C)=CC(=O)C2 | inactive

Each molecule was assayed on Escherichia coli (assay: Antimicrobial activity against Escherichia coli ATCC 25922 at 100 ug/mL by agar dilution assay).
Assay type: functional, organism-based

SMILES | Activity
CC(=O)OC[C@@]12CC[C@@H](C(C)C)[C@@H](O)[C@@H]1C(C)=CC(=O)C2 | inactive
COc1cc2oc(-c3ccc(O)c(O)c3)c(OC)c(=O)c2c(O)c1OC | inactive
CC(=O)O[C@@H]1[C@H](C(C)C)CC[C@@]2(CO)CC(=O)C=C(C)[C@@H]12 | inactive
COc1ccc(-c2oc3cc(OC)c(OC)c(O)c3c(=O)c2OC)cc1O | inactive
COc1cc(O)c2c(=O)c(OC)c(-c3ccc(O)c(OC)c3)oc2c1 | inactive
CC(=O)OC[C@@]12CC[C@@H](C(C)C)[C@@H](OC(C)=O)[C@@H]1C(C)=CC(=O)C2 | inactive

Each molecule was assayed on SF-268 (assay: Anticancer activity against human SF268 cells).
Assay type: functional, cell-based

SMILES | Activity
CC(=O)O[C@@H]1[C@H](C(C)C)CC[C@@]2(CO)CC(=O)C=C(C)[C@@H]12 | inactive
CC(=O)OC[C@@]12CC[C@@H](C(C)C)[C@@H](OC(C)=O)[C@@H]1C(C)=CC(=O)C2 | inactive
